Data reported in patent US20240262826A1, “WILD TYPE KIT INHIBITORS” (Blueprint Medicines Corporation, priority 2022, published 2024).

What was measured:
[1] = target: Exon 11 KIT (Homo sapiens (Human), UniProt P10721, V560G); experiment: Exon 11 HMC1.1 autophosphorylation assay (Phospho-Y719 c-KIT ELISA); assay type: cell-based; conditions: 90 minutes, read-out: IC50 HMC1.1 pKIT
Protocol: Exon 11 HMC1.1 autophosphorylation assay: 50,000 HMC1.1 cells were incubated in 50 ul culture media (phenol-red free IMDM, no iron, no serum) in each well of a 96-well plate and serum starved 4 hours in a tissue culture incubator (5% CO2, 37° C.). An 8-point dose concentration series of compound were then added to the cells in a volume of 7 ul to each well. After 90 minutes, 14 ul of 5× AlphaLISA Lysis Buffer (Perkin Elmer) supplemented with a protease and phosphatase inhibitor cocktail (Cell Signaling Technologies) was added to each well and shaken at […] for 5 minutes at 4° C. Phospho-Y719 c-KIT ELISA kit from Cell Signaling Technology was used to assess levels of phospho KIT.

[2] = target: T1, wild type c-kit (Homo sapiens (Human), UniProt P10721); experiment: PathScan phospho c-kit (Tyr719) sandwich ELISA in SCF-stimulated M-07e cells (pKIT assay); assay type: cell-based; conditions: ELISA assay (values not marked *)
T1 sequence (P10721 26-976): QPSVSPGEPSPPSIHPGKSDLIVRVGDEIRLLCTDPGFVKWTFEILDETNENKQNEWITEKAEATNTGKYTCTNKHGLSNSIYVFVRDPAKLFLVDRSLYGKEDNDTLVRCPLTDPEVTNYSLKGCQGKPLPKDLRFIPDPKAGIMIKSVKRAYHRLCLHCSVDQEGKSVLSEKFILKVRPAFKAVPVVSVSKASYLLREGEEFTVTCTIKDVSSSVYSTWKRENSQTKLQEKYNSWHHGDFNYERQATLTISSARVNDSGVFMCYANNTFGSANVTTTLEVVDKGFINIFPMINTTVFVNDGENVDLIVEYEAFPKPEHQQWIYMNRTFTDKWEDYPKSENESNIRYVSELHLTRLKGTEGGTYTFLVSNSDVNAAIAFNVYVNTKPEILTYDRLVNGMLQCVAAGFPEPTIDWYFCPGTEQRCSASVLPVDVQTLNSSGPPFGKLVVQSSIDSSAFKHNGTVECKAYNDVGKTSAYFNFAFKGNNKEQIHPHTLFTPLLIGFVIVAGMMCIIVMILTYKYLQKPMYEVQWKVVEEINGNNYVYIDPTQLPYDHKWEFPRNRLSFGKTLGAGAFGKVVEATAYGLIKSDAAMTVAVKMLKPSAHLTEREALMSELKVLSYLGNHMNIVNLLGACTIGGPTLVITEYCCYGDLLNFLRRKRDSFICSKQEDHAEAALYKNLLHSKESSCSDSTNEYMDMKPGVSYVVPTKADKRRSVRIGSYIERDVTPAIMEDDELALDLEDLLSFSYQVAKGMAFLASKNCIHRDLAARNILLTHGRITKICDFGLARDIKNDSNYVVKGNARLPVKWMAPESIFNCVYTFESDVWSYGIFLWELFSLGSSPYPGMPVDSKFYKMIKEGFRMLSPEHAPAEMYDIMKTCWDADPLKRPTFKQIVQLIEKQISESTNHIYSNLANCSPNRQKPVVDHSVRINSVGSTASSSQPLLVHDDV
In short: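 Serum- and GM-CSF-starved M-07e cells (4 h) pretreated 60 min at 37 °C with an 8-point compound series in duplicate (0.25% DMSO), then stimulated with human SCF (500 ng/mL stock) 10 min at room temperature. Lysate c-kit Tyr719 phosphorylation quantified by sandwich ELISA with TMB read-out; IC50 from 4-parameter logistic fit.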

[3] = tested on: NIH3T3 cell lines that overexpressed the kit mutation exon 9; experiment: Exon 9 assay: cell viability (CellCounting Lite 2.0), 72 hours; assay type: cell-based; conditions: Mus musculus, read-out: IC50 NIH3T3-cKit-AY502-3dup
Protocol: Exon 9 assay: The NIH3T3 cell lines that overexpressed the kit mutation exon 9 (or parental cells) were resuscitated and well cultured, and the cells were collected and seeded in 96-well plates at 3000/well, then the compounds were added to the 96 well plates in a gradient dilution, and the plates were incubated in an incubator for 72 hours.
After 72 hours of incubation, an equal volume of CellCounting
Lite 2.0 Luminescent Cell Viability reagent was added to the 96-well plates to detect the cell viability. The data were analyzed using GraphPad Prism 7.0 softwar e, and the nonlinear S-curve regression was used to fit the data to obtain the dose-effect curve, and the IC50 value was calculated accordingly.

[4] = target: human P-glycoprotein (P-gp, MDR1) (Homo sapiens (Human), UniProt P08183); experiment: MDCK-MDR1 cell monolayer drug transport assay (P-gp efflux ratio); assay type: in vitro ADME; conditions: pH 7.4, MDCK-MDR1 cells, 1 uM concentration of compound, read-out: Pgp Efflux Ratio, 1 uM
human P-glycoprotein (P-gp, MDR1), sequence (P08183 whole entry): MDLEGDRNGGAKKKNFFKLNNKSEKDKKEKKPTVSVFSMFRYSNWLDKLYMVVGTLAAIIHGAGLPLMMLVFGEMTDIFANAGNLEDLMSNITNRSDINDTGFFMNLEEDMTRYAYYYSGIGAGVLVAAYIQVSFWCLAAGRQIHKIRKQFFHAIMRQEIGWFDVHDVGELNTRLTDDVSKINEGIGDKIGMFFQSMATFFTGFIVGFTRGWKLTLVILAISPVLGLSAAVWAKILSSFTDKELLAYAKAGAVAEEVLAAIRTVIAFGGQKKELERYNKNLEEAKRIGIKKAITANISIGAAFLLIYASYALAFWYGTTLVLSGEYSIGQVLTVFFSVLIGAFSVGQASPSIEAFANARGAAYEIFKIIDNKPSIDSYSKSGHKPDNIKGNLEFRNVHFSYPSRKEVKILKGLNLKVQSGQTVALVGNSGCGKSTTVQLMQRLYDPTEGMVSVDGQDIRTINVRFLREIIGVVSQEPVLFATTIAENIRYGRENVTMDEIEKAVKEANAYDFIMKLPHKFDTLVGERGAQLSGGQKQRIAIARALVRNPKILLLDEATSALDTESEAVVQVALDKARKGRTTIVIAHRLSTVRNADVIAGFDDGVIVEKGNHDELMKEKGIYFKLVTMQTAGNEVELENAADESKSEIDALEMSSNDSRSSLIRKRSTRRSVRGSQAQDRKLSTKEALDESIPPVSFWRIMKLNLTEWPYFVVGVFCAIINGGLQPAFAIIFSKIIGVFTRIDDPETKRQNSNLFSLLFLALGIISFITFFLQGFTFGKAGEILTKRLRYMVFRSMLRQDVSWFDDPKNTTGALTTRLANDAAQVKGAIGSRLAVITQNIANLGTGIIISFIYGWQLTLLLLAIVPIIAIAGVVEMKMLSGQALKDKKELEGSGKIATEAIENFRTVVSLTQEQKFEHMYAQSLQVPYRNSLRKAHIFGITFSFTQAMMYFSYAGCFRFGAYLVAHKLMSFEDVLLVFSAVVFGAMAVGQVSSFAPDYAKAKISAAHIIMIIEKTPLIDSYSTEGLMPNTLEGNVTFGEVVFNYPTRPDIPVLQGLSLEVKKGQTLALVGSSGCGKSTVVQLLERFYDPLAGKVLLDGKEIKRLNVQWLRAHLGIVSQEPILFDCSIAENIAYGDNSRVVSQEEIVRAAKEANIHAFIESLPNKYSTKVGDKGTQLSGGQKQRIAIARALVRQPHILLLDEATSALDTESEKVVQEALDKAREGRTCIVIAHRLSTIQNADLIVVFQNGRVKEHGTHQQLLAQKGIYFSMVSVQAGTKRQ
In short: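 P-gp substrate potential tested in MDCK-MDR1 monolayers on Transwell supports, cultured 4-8 days; monolayers with TEER <42 ohms·cm2 discarded. Transport run in HBSS (10 mM HEPES, pH 7.4) at 37° C with compound working solution at 1 μM.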

[5] = target: T1, wild type c-kit; experiment: MSD Phospho c-Kit (Tyr721) Assay Whole Cell Lysate Kit in SCF-stimulated M-07e cells (pKIT assay, marked *); assay type: cell-based; conditions: Meso Scale Discovery (MSD) assay (values marked *)
Protocol: The ability of compounds of the disclosure (described herein as test compounds) to inhibit autophosphorylation of wild type c-kit was measures using either a PathScan phospho c-kit (Tyr719) sandwich ELISA (CST #7298) or a Phospho c-Kit (Tyr721) Assay Whole Cell Lysate Kit (MSD: 515DPD/catalog number K15119D-2).
For the MSD Phospho c-Kit (Tyr721) Assay Whole Cell Lysate Kit: M-07e cells were maintained in Iscove's Modified Dulbecco's Medium (IMDM) media supplemented with 10% FBS, 5 ng/ml granulocyte-macrophage colony-stimulating factor (GM-CSF) and 100 units/mL Penicillin-Streptomycin, and grown in a 37° C., 5% CO2 in a humidified tissue culture incubator. M-07e cells were washed with phenol red-free, serum-free, GM-CSF-free IMDM and seeded in the same media at 100,000 cells well in a volume of 50 ul in a 96-well U-bottom plate. The cells were incubated for 4 hours, followed by the addition of test compound at a final DMSO concentration of 0.25% for 60 min at 37° C. to generate an 8-point dose concentration series of test compounds. The cells were stimulated with 50 ng/ml human SCF for 10 min at room temperature. Cells were then lysed by the addition of 16.5 ul of PerkinElmer 5× AlphaLISA Lysis Buffer supplemented with Cell Signaling Technologies protease/phosphatase inhibitor. Lysis was encouraged by shaking at 4° C. for 30 minutes.
25 ul of lysate was transferred to the MSD plate and the plate was shaken at 700 rpm at room temperature for one hour, followed by washing 3 times with Tris wash buffer. Next, 25 ul of detection antibody solution (diluted from 50× stock in antibody dilution buffer) was added. After shaking at 700 rpm at room temperature for one hour, the plate was washed 3 times with Tris wash buffer. The plate was then read on MSD Sector Imager immediately after 150 ul of reading buffer added to each well.
An IC50 was calculated using a 4-parameter logistic nonlinear regression.

Exon 11 KIT, sequence (P10721 26-976 V560G): as the sequence (P10721 26-976) above, with V535G counted along it

IC50 [1] | IC50 [2] | efflux ratio at 2 h, 1 µM [4] | IC50 [5] | SMILES | IC50 [3]
6.4 nM | 19 nM | – | – | COC(=O)N1CC(c2cnn(-c3ccc(C)c(NC(=O)c4cnn5ccc(N6CCN(C)CC6)cc45)c3)n2)C1 [Example 81, methyl 3-(2-(4-methyl-3-(5-(4-methylpiperazin-1-yl)pyrazolo[1,5-a]pyridine-3-carboxamido)phenyl)-2H-1,2,3-triazol-4-yl)azetidine-1-carboxylate] | –
0.7 nM | 0.5 nM | 3.2 | – | COC[C@@H](O)Cn1cc(-c2ccn3ncc(C(=O)Nc4cc(-c5nnn(C6CC6)n5)ccc4Cl)c3c2)cn1 [Example 237, (S)-N-(2-chloro-5-(2-cyclopropyl-2H-tetrazol-5-yl)phenyl)-5-(1-(2-hydroxy-3-methoxypropyl)-1H-pyrazol-4-yl)pyrazolo[1,5-a]pyridine-3-carboxamide] | 15.6 nM
0.9 nM | 0.3 nM | 13.2 | – | Cc1cc(F)c(-c2nnn(C3CC3)n2)cc1NC(=O)c1cnn2ccc(-c3cn(CC(C)(C)O)nc3C)cc12 [Example 239, N-(5-(2-cyclopropyl-2H-tetrazol-5-yl)-4-fluoro-2-methylphenyl)-5-(1-(2-hydroxy-2-methylpropyl)-3-methyl-1H-pyrazol-4-yl)pyrazolo[1,5-a]pyridine-3-carboxamide] | –
0.2 nM | 0.3 nM | 3.6 | – | Cc1nn(C[C@H](C)O)cc1-c1ccn2ncc(C(=O)Nc3cc(-c4nnn(C5CC5)n4)ccc3Cl)c2c1 [Example 278, (S)—N-(2-chloro-5-(2-cyclopropyl-2H-tetrazol-5-yl)phenyl)-5-(1-(2-hydroxypropyl)-3-methyl-1H-pyrazol-4-yl)pyrazolo[1,5-a]pyridine-3-carboxamide] | –
– | – | 11.9 | 5.4 nM | Cc1ccc(-c2nnn(C)n2)cc1NC(=O)c1cnn2ccc(-c3cn[nH]c3)cc12 [Example 43, N-(2-methyl-5-(2-methyl-2H-tetrazol-5-yl)phenyl)-5-(1H-pyrazol-4-yl)pyrazolo[1,5-a]pyridine-3-carboxamide] | –
1 nM | 34.8 nM | 24.9 | – | COCCNc1ccn2ncc(C(=O)Nc3cc(-c4nnn(C5CN(C(=O)OC)C5)n4)ccc3C)c2c1 [Example 148, methyl 3-(5-(3-(5-((2-methoxyethyl)amino)pyrazolo[1,5-a]pyridine-3-carboxamido)-4-methylphenyl)-2H-tetrazol-2-yl)azetidine-1-carboxylate] | –
– | – | 24.5 | 1.1 nM | Cc1ccc(-c2nnn(C[C@@H]3CC3(F)F)n2)cc1NC(=O)c1cnn2ccc(-c3cn[nH]c3)cc12 (single isomer, unassigned) [Example 56, (S)—N-(5-(2-((2,2-difluorocyclopropyl)methyl)-2H-tetrazol-5-yl)-2-methylphenyl)-5-(1H-pyrazol-4-yl)pyrazolo[1,5-a]pyridine-3-carboxamide or (R)—N-(5-(2-((2,2-difluorocyclopropyl)methyl)-2H-tetrazol-5-yl)-2-methylphenyl)-5-(1H-pyrazol-4-yl)pyrazolo[1,5-a]pyridine-3-carboxamide] | –
– | – | 12.8 | 16.7 nM | Cc1ccc(-c2nnn(C3CN(S(=O)(=O)CCO)C3)n2)cc1NC(=O)c1cnn2ccccc12 [Example 203, N-(5-(2-(1-((2-hydroxyethyl)sulfonyl)azetidin-3-yl)-2H-tetrazol-5-yl)-2-methylphenyl)pyrazolo[1,5-a]pyridine-3-carboxamide] | –
– | – | 3.9 | 4.5 nM | COc1ccn2ncc(C(=O)Nc3cc(-c4nnn(C5CN(S(C)(=O)=O)C5)n4)ccc3C)c2c1 [Example 153, 5-methoxy-N-(2-methyl-5-(2-(1-(methylsulfonyl)azetidin-3-yl)-2H-tetrazol-5-yl)phenyl)pyrazolo[1,5-a]pyridine-3-carboxamide] | –
– | – | 6.5 | 8 nM | Cc1ccc(-c2nnn(C3CN(S(C)(=O)=O)C3)n2)cc1NC(=O)c1cnn2ccc(C3CC3)cc12 [Example 50, 5-cyclopropyl-N-(2-methyl-5-(2-(1-(methylsulfonyl)azetidin-3-yl)-2H-tetrazol-5-yl)phenyl)pyrazolo[1,5-a]pyridine-3-carboxamide] | –
– | – | 15.9 | 1.5 nM | Cc1ccc(-c2nnn([C@H]3C[C@H](C(F)(F)F)C3)n2)cc1NC(=O)c1cnn2ccc(-c3cn[nH]c3)cc12 [Example 44, N-(2-methyl-5-(2-((1r,3r)-3-(trifluoromethyl)cyclobutyl)-2H-tetrazol-5-yl)phenyl)-5-(1H-pyrazol-4-yl)pyrazolo[1,5-a]pyridine-3-carboxamide or N-(2-methyl-5-(2-((1s,3s)-3-(trifluoromethyl)cyclobutyl)-2H-tetrazol-5-yl)phenyl)-5-(1H-pyrazol-4-yl)pyrazolo[1,5-a]pyridine-3-carboxamide] | –
– | – | 16.6 | 1.7 nM | Cc1ccc(-c2nnn(C3CC(F)(F)C3)n2)cc1NC(=O)c1cnn2ccc(-c3cn[nH]c3)cc12 [Example 198, N-(5-(2-(3,3-difluorocyclobutyl)-2H-tetrazol-5-yl)-2-methylphenyl)-5-(1H-pyrazol-4-yl)pyrazolo[1,5-a]pyridine-3-carboxamide] | –
– | – | 19.7 | 1.1 nM | Cc1ccc(-c2nnn(C[C@H]3CC3(F)F)n2)cc1NC(=O)c1cnn2ccc(-c3cn[nH]c3)cc12 (single isomer, unassigned) [Example 55, (R)—N-(5-(2-((2,2-difluorocyclopropyl)methyl)-2H-tetrazol-5-yl)-2-methylphenyl)-5-(1H-pyrazol-4-yl)pyrazolo[1,5-a]pyridine-3-carboxamide or (S)—N-(5-(2-((2,2-difluorocyclopropyl)methyl)-2H-tetrazol-5-yl)-2-methylphenyl)-5-(1H-pyrazol-4-yl)pyrazolo[1,5-a]pyridine-3-carboxamide] | –
– | – | 3.1 | 6.4 nM | Cc1ccc(-c2nnn(C3CN(S(=O)(=O)C4(C)CC4)C3)n2)cc1NC(=O)c1cnn2ccccc12 [Example 181, N-(2-methyl-5-(2-(1-((1-methylcyclopropyl)sulfonyl)azetidin-3-yl)-2H-tetrazol-5-yl)phenyl)pyrazolo[1,5-a]pyridine-3-carboxamide] | –
– | – | – | 3.9 nM | Cc1ccc(-c2nnn(C3CC(F)(F)C3)n2)cc1NC(=O)c1cnn2ccc(N3CCOCC3)cc12 [Example 79, N-(5-(2-(3,3-difluorocyclobutyl)-2H-tetrazol-5-yl)-2-methylphenyl)-5-morpholinopyrazolo[1,5-a]pyridine-3-carboxamide] | –
